Reference: patent publication US20080119452A1, “METHODS FOR ENHANCING COGNITIVE FUNCTION” (priority 2006, published 2008)
Read-outs that look alike come from different tables or passages of the source.

What was measured:
rats = experiment: Object recognition task (time spent on novel vs familiar object); format: in vivo, rat
Excerpt: Effect of Compounds in Object Recognition Task
Spending more time on the novel than on the familiar object indicates memory for the latter. Vehicle-treated rats spent a mean of 63% of time on the novel object. The means for all of the doses of test articles were numerically higher with values of: 70 and 78% for galantamine, 71 and 75% for a first representative compound of formula IV, and 73 and 81% for a second representative compound of formula IV.
Ennaceur A and Delacour J (1988) A new one-trial test for neurobiological studies of memory in rats. 1: Behavioral data. Behav Brain Res 31: 47-59.

mouse = conditions: sub-optimal analgesic dose, cited from earlier work

Row | Molecule | % Time Novel Object (Mean ± SEM) (rats; 0.3 mg/kg p.o., 0.3 mg/kg) [%] | % Time Novel Object (Mean ± SEM) (rats; 0.3 mg/kg p.o., listed as galantamine, 0.3 mg/kg) [%] | % Time Novel Object (Mean ± SEM) (rats; 1.7 mg/kg p.o., 1.7 mg/kg) [%] | % Time Novel Object (Mean ± SEM) (rats; 1.7 mg/kg p.o., listed as galantamine, 1.7 mg/kg) [%] | effect on memory consolidation (mouse; 3 nmol/mouse i.c.v.) | effect on memory consolidation (mouse; 100 mg/kg oral administration)
1 | COc1ccc2c3c1O[C@H]1C[C@@H](O)C=C[C@@]31CCN(C)C2 [Galantamine, galantamine] | 70 ± 6 | 70 | 78 ± 5 | 78 |  | 
2 | rubiscolin-6 |  |  |  |  | enhance memory consolidation | enhance memory consolidation
